Test results reported in US9598406B2, “Quinazolinone derivatives for use in the treatment of chlamydiales infections” (Commissariat a l'Energie Atomique et aux Energies …, priority 2015, dated 2017).

Tests used:
Assay type in all cases: cell-based
[1] = system: Chlamydia trachomatis (Ctr) strain L2/434/Bu; test: Chlamydia trachomatis progeny infection of HeLa229 cells, cellular protection by compounds at 25 μM (GFP-signal, Image J quantification); conditions: HeLa229 cells pretreated 1 hour, Ctr MOI1, progeny infection fixed 48 hpi, versus solvent-treated cells
Description: HeLa229 (ATCC CCL-2.1). Cells were grown in RPMI1640 medium (Glutamax, 10% FBS, w/o HEPES) (Invitrogen).
Chlamydia trachomatis (Ctr). Laboratory-adapted strain L2/434/Bu (ATCC VR902B) was used in assays. Full biological and genetic information is available for this strain including complete genome sequence and defined proteome. This strain has a relatively low particle to infectivity ratio, perform efficient cell infection and has a higher viability than standard genital tract isolates with faster developmental cycle. Culture conditions have been described in (Wang Y., Kahane S., Cutcliffe L. T., Skilton R. J., Lambden P. R., Clarke I. N. Development of a transformation system for Chlamydia trachomatis: Restoration of glycogen biosynthesis by acquisition of a plasmid shuttle vector. PLoS Pathogen, 2011, 7(9):e1002258. doi: 10.1371/journal.ppat.1002258).
Compound application during Chlamydia trachomatis infection. HeLa229 cells were pretreated with Retro-2 and Retro-2 derivatives in concentrations of 25 μM for 1 hour until Chlamydia trachomatis (MOI1) were added to the cells. Compounds were present during infection. To obtain progeny infection, compound treated cells were lysed 24 h post infection (hpi) and lysate was used to infect fresh HeLa 229 cells. Infected cells of progeny infection were fixed with 4% Paraformaldehyde 48 hpi. Cells were stained for DAPI and Chlamydia trachomatis were detected by GFP-signal. Images are representative of n=2 independent experiments. Quantification of infected cells by Chlamydia trachomatis was realized from microscopy images with Image J software (FIG. 8) and cellular protection by compounds at 25 μM was then determined (Table 1) by comparison with solvent-treated cells (control) with the following equation: […]

[2] = system: Chlamydia trachomatis (Ctr) strain L2/434/Bu; test: Chlamydia trachomatis (Ctr) infectivity assays in HeLa229 cells with Retro-2 at 25, 50 and 75 μM (HSP60 immunoblot, GFP-signal)
Description: (§1) HeLa229 (ATCC CCL-2.1) were grown in RPMI1640 medium (Glutamax, 10% FBS, w/o HEPES) (Invitrogen). Stable HeLa229 cell lines were established to constantly label the Golgi apparatus (B4GalT1 in a pCMV6-AC-mRFP cloning vector, OriGene) and the ER (KDEL in a pDsRed2-ER expression vector).
Chlamydia trachomatis (Ctr). Laboratory-adapted strain L2/434/Bu (ATCC VR902B) was used in assays. Full biological and genetic information is available for this strain including complete genome sequence and defined proteome. This strain has a relatively low particle to infectivity ratio, perform efficient cell infection and has a higher viability than standard genital tract isolates with faster developmental cycle. […]
(A) Cells with primary infection were lysed 24 h post infection (hpi). […] Progeny infection was lysed 24 hpi and analyzed together with primary infection samples by immunoblot. Chlamydial growth was detected with antibodies against chlamydial HSP60 protein and Actin was used as loading control (FIG. 6).
(B) Infected cells were fixed with 4% Paraformaldehyde 24 hpi. Cells were stained by Alexa-680 coupled Phalloidin and Ctr were detected by GFP-signal (FIG. 7).

[3] = system: Simkania negevensis (Sn) strain Z; test: Simkania negevensis (Sn) infectivity assays in HeLa229 cells (primary and progeny infection; GroEL immunoblot, inclusion size/number, microscopy, TEM)
Description: as §1
Simkania negevensis (Sn) strain Z (ATCC VR-1471) was prepared as described previously (Mehlitz A, Karunakaran K, Herweg J A, Krohne G, van de Linde S, Rieck E, Sauer M, Rudel T. The chlamydial organism Sn forms ER vacuole contact sites and inhibits ER-stress. Cell Microbiol 2014; 16(8):1224-1243).
Briefly, HeLa229 cells were grown to 50-70% confluence, were inoculated with Sn in RPMI1640 with 5% FBS, for 6 h at 35° C. in a humidified incubator at 5% CO2. Medium was replaced by infection medium (RPMI1640, Glutamax, 5% FBS, w/o HEPES) and growth was allowed for 3 days. Cells were mechanically detached and bacteria were released using ˜2-5 mm glass beads (Carl Roth). Low speed supernatant (600×g, 4° C. and 5 min) was subjected to high-speed centrifugation (20,000×g, 4° C. and 30 min) to pellet bacteria. Bacteria were washed twice with 5 ml SPG (250 mM sucrose, 50 mM sodium phosphate, 5 mM glutamate, pH 7.4), aliquoted and stored at −80° C. in SPG.
40,000 HeLa cells were seeded in 12-well cluster plates, inhibitor-treated and infected as indicated in the respective experiments.
For infectivity assays cells were either fixed and stained at indicated time points (FIG. 2, 4; inclusion formation/primary infection) or bacteria were released via one freeze thaw cycle (−70° C./37° C.) followed by mechanical release through pipetting and transfer to fresh HeLa229 cells (1:25-1:50, progeny/infectivity). Cells were centrifuged for 1 h at 35° C. and medium exchanged to infection medium. […] Infectivity assays were imaged on an automated fluorescence microscope Leica DMIR (FIG. 4). Numbers and average sizes of the SCV as well as host cell numbers were determined via GroEL and DAPI staining and images were analysed and quantified using FIJI (ImageJ) and Excel (Microsoft). […]

SMILES | Cellular protection at 25 μM (%) [1] [%] | further results
Cc1nc(-c2ccc(C3Nc4ccccc4C(=O)N3c3ccccc3)s2)cs1 (centres unmarked) [Compound 25, 2-(5-(2-methylthiazol-4-yl)thiophen-2-yl)-3-phenyl-2,3-dihydroquinazolin-4(1H)-one] | 100 | 
Cc1nc(-c2ccc(C3N(C)c4ccc(F)cc4C(=O)N3c3ccccc3)s2)cs1 (centres unmarked) [Retro-2.1, 6-fluoro-1-methyl-2-(5-(2-methylthiazol-4-yl)thiophen-2-yl)-3-phenyl-2,3-dihydroquinazolin-4(1H)-one] | 100 | 
CN1c2ccccc2C(=O)N(c2ccccc2)C1c1ccc(-c2csc(-c3ccc(F)cc3)n2)s1 (centres unmarked) [VP-89, 2-(5-(2-(4-fluorophenyl)thiazol-4-yl)thiophen-2-yl)-1-methyl-3-phenyl-2,3-dihydroquinazolin-4(1H)-one] | 88.5 | 
Cc1nc(-c2ccc(C3N(C)c4ccccc4C(=O)N3c3ccccc3Cl)s2)cs1 (centres unmarked) [RN-3-072, 3-(2-chlorophenyl)-1-methyl-2-(5-(2-methylthiazol-4-yl)thiophen-2-yl)-2,3-dihydroquinazolin-4(1H)-one] | 100 | 
Cc1ccc(C2Nc3ccccc3C(=O)N2c2ccccc2)s1 (centres unmarked) [Retro-2, 2-(5-methylthiophen-2-yl)-3-phenyl-2,3-dihydroquinazolin-4(1H)-one] | 18.1 | Ctr Hsp60 detection in the progeny infection ([2]; 75 μM of Retro-2, immunoblot, FIG. 6): almost no Ctr Hsp60 detection; Effect on Ctr development (Hsp60 western, GFP-expressing Ctr inclusions) ([2]; HeLa229 cells, Retro-2 25, 50 and 75 μM, primary infection 24 hpi): strong inhibitory effect; Concentration at which maximal inhibition of Sn replication was observed ([3]; HeLa cells, FIGS. 1-4): 75 µM; Effect on primary and progeny infection for Sn ([3]; HeLa cells, Retro-2 at 25 and 75 μM, GroEL western, inclusion size, inclusion number, microscopy): inhibitir effect on primary and progeny infection; Sn inclusions morphology (transmission electron microscopy) ([3]; infected HeLa cells, versus DMSO-treated control, FIG. 5): sub-vacuolar membranes were highly enlarged and contained excessive membrane material
CN1c2ccccc2C(=O)N(c2ccccc2)C1c1ccc(Br)s1 (centres unmarked) [RN-2-016, 2-(5-bromothiophen-2-yl)-1-methyl-3-phenyl-2,3-dihydroquinazolin-4(1H)-one] | 91.8 | 
